This is an account of results in patent publication US20050277617A1, “Drugs against articular failure” (KABUSHIKI KAISHA HAYASHIBARA SEIBUTSU KAGAKU KENKYUJO, priority 2000, published 2005).

The test system of the test is arthritis induced rat. Nature of the test: Arthritis induced by type II collagen immunization in rats; increasing rate of hind foot volume. It counts as in vivo. The conditions noted are these: for Judgment (symbol) of the effect of alleviating arthritis / Relative value of the average of increasing rate of hind foot volume when the average in the control group was regarded as 100: Experiment 1, daily until day 24, GlcN or GlcNAc 100, Ch4S 50, Trehalose 200 mg/kg body weight/day, female Lewis rats; for Enhancement of the alleviation effect of amino sugars on arthritis: Experiment 3, saccharide used instead of trehalose in the design of Experiment 1. An excerpt: Thirty-six female Lewis rats, aged 6-weeks, were divided into 12 groups consisting of three rats per group. Glucosamine, N-acetylglucosamine, chondroitin 4-sulfate, and crystalline hydrous trehalose, which were all in a reagent grade, and designated as “test compounds” hereinafter), were respectively dissolved in phosphate buffer saline (described as “PBS” hereinafter), and intraperitoneally injected alone or in an appropriate combination daily to the rats of the group Nos. 1 to 11 at the doses in the following Table 2. As a control, PBS was administrated daily to each rat of the group No. 12 at a dose of 1 ml per day by the same administration route as above. Hereinafter, the day number means a day counted from the starting day of administration. In accordance with the method of inducing arthritis by type II collagen immunization described by K. Terato, in “Biomedical research”, Vol. 3, pp. 495-505, 1982, on day 3, 800 μg/head of a type II collagen from bovine in a reagent grade along with Freund's incomplete adjuvant was administered to the dorsal subcutaneous; and on day 10, a fresh preparation of the same collagen and adjuvant as used above were administered at a dose of about 1/10 of that of on day 3. Test compounds were administered to the rats daily until day 24.
During the term of the above experiment, on day 3 just before the administration of collagen and on day 24 just after the administration of the test compounds, both hind foot volumes of every rat were measured according to the method described by D. T. Walz in “Journal of Experimental Therapy”, Vol. 152, pp. 116-121, 1971. Increasing rate (%) of the total hind foot volume of each rat was calculated by substituting the data for the Formula 1 below. Increasing rate of hind foot volume (%)=[{(Measured volume on day 24)−(Measured volume on day 3)}/(Measured volume on day 3)]×100 Formula 1
The effect of alleviating arthritis for each test compound was judged on the basis of the criterion described in the following Table 1, after calculating the averages of increased rates of hind foot volumes in the rats of the group Nos. 1 to 11 and the relative values of the above averages when the average in the control group was regarded as 100. The results are in Table 2
As a result, the effect of glucosamine or N-acetylglucosamine with trehalose was judged as high (symbol “+”) even with the tested minimum amount of 5 mg/kg body weight/day. […]

Take `OC[C@H]1O[C@H](O[C@H]2O[C@H](CO)[C@@H](O)[C@H](O)[C@H]2O)[C@H](O)[C@@H](O)[C@@H]1O` [Trehalose, trehalose]: the “Increasing rate of hind foot volume compared with the control group” value (Experiment 1, group No. 6, trehalose alone 200 mg/kg body weight/day, intraperitoneal) was “No difference”. For the setting “intraperitoneal”, the “Judgment (symbol) of the effect of alleviating arthritis” value (from here on “Judgment (symbol)”) is given as “− (67 or more)” and the “Relative value of the average of increasing rate of hind foot volume when the average in the control group was regarded as 100” value is listed as 98.

Regarding `OC[C@H]1O[C@H](O[C@H]2[C@H](O)[C@@H](O)C(O)O[C@@H]2CO)[C@H](O)[C@@H](O)[C@@H]1O` (mixture of isomers) [maltose], the “Enhancement of the alleviation effect of amino sugars on arthritis” value (“Enhancement” below) is reported as “no enhanced effect”.

With `OC[C@@H](O)[C@@H](O)[C@H](O)[C@@H](O)CO` [sorbitol], the “Enhancement” value is “no enhanced effect”.

`N[C@H]1C(O)O[C@H](CO)[C@@H](O)[C@@H]1O` (some centres unmarked) [GlcN, glucosamine]: where the note is “intraperitoneal”, the “Judgment (symbol)” value is listed as “− (67 or more)” and the “Relative value of the average of increasing rate of hind foot volume when the average in the control group was regarded as 100” value was found to be 88.

Turning to `OC[C@H]1O[C@@H](O[C@H]2O[C@H](CO)[C@@H](O)[C@H](O)[C@H]2O)[C@H](O)[C@@H](O)[C@@H]1O` [neotrehalose], the “Enhancement” value is “no enhanced effect”.

For chondroitin 4-sulfate [Ch4S], where the note is “intraperitoneal”, the “Judgment (symbol)” value is reported as “− (67 or more)” and the “Relative value of the average of increasing rate of hind foot volume when the average in the control group was regarded as 100” value stood at 95.

Consider `COc1ccc2c(c1)c(CC(=O)O)c(C)n2C(=O)c1ccc(Cl)cc1` [indomethacin], for which the “Increasing rate of hind foot volume” value (3 mg/kg body weight, some rats, data not shown) is under 20%.

Take `CC(=O)N[C@H]1C(O)O[C@H](CO)[C@@H](O)[C@@H]1O` (some centres unmarked) [GlcNAc, N-acetylglucosamine]: for the setting “intraperitoneal”, the “Judgment (symbol)” value is listed as “− (67 or more)” and the “Relative value of the average of increasing rate of hind foot volume when the average in the control group was regarded as 100” value was 89.

As for `OC[C@@H](O)[C@@H](O[C@H]1O[C@H](CO)[C@@H](O)[C@H](O)[C@H]1O)[C@H](O)[C@@H](O)CO` [maltitol], the “Enhancement” value was “no enhanced effect”.
